From ChEMBL document CHEMBL1201862, “PubChem BioAssay data set” (2004)
Calls of active or inactive are those of the source.

Experiments:
[1] = Luminescence Cell-Based Dose Response HTS to Identify Activators of Luciferase Translation or Activity in H4 […] Cells. [Related pubchem assays: 1829 (Project Summary), 1814 (Primary HTS)]; type: functional
[2] = biological target: T1, Oxysterols receptor LXR-beta (Homo sapiens, UniProt P55055); type: functional, cell-based
T1 sequence (P55055 whole entry): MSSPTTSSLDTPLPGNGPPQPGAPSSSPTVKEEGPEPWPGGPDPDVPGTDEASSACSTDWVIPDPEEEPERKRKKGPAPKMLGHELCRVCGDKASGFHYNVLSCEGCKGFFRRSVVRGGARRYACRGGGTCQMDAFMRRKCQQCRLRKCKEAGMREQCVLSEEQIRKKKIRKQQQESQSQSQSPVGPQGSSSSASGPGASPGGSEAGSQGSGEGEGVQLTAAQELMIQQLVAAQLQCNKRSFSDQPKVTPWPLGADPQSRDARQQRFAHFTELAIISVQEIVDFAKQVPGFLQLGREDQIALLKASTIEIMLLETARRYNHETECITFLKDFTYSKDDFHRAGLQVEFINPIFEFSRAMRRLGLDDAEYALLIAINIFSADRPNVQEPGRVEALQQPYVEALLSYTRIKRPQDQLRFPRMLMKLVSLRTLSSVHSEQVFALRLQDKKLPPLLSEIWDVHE

H4 = test: Luminescence Cell-Based Dose Response HTS to Identify Activators of 5'UTR Stem-Loop Driven Prion Protein mRNA Translation in H4 Neuroglioblastoma Cells. [Related pubchem assays: 1829 (Project Summary), 1814 (Primary HTS)]; type: functional; conditions: Homo sapiens
[3] = Luminescence Cell-Based Dose Confirmation HTS to Identify Activators of 5'UTR Stem-Loop Driven Alpha-Synuclein mRNA Translation in H4 Neuroglioblastoma Cells. [Related pubchem assays: 1829 (Project Summary), 1814 (Primary HTS)]; type: functional
[4] = biological target: T1, Oxysterols receptor LXR-beta; type: functional, cell-based; remark: listed apart in the source
Protein skinhead-1 = biological target: T2, Protein skinhead-1 (Caenorhabditis elegans, UniProt P34707); type: functional
T2 sequence (P34707 whole entry): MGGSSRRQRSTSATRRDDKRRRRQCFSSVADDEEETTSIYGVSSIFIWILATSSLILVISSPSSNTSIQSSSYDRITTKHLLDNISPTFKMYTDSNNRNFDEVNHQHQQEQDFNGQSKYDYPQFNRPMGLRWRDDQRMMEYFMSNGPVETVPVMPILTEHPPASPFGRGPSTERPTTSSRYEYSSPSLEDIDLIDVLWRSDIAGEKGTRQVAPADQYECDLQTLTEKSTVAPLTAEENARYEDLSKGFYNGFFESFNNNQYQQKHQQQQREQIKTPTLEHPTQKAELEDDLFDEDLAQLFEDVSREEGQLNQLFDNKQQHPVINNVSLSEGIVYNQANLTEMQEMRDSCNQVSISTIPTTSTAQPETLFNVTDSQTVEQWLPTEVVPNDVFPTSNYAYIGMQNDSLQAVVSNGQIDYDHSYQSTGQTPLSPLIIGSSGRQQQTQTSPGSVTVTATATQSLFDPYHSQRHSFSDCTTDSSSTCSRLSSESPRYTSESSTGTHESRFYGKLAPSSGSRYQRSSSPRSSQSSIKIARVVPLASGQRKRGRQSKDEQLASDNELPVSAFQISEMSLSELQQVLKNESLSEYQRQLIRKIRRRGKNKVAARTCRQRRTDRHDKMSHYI

[5] = biological target: Disintegrin and metalloproteinase domain-containing protein 17 (Homo sapiens, UniProt P78536); test: exosite inhibitors of ADAM17, dose response, biochemical (AID 743260)
Disintegrin and metalloproteinase domain-containing protein 17, sequence (P78536 whole entry, the tested form may be a part): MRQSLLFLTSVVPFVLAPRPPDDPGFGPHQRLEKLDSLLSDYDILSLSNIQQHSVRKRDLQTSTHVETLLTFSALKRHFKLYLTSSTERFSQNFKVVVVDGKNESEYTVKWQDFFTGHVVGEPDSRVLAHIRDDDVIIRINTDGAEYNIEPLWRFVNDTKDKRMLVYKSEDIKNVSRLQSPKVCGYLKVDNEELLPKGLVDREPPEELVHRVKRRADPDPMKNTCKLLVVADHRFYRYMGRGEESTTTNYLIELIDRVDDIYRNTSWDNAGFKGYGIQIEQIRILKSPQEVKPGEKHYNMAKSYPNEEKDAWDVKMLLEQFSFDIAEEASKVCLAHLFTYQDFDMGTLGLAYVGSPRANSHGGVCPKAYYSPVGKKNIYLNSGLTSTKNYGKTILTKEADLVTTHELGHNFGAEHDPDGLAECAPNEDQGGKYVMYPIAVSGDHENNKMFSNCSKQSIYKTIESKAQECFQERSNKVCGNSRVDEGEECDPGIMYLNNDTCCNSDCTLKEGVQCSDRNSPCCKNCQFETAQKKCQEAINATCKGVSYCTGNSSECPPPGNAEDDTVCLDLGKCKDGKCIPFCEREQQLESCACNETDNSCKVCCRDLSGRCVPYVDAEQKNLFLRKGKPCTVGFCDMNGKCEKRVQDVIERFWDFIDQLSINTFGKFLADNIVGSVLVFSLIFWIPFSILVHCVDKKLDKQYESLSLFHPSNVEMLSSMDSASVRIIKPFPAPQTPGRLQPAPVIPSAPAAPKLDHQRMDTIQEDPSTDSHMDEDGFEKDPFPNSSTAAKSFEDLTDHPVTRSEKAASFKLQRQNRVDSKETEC

[6] = ADAM10 protease inhibitors, dose response, selectivity assay for ADAM17 exosite inhibitor project, biochemical, FRET peptide substrate, recombinant human ADAM10 (AID 743259);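 further: ADAM10 enzyme cleaving a FRET peptide substrate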
[7] = cytotoxicity in COV434 cells, dose response, cytotoxicity control for PAX8 inhibitor project, cell-based, plate reader, dry powder, SA7 (AID 743145); type: functional
Paired box protein Pax-8 = Paired box protein Pax-8 (Homo sapiens, UniProt Q06710); test: inhibitors of PAX8-driven TPO luciferase reporter, dose response, RMG-I cells, cherry-pick (AID 687027); type: functional, cell-based;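 further: luciferase reporter driven by Pax8 target thyroperoxidase promoter measured by SteadyGlo luminescence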
Paired box protein Pax-8, sequence (Q06710 whole entry): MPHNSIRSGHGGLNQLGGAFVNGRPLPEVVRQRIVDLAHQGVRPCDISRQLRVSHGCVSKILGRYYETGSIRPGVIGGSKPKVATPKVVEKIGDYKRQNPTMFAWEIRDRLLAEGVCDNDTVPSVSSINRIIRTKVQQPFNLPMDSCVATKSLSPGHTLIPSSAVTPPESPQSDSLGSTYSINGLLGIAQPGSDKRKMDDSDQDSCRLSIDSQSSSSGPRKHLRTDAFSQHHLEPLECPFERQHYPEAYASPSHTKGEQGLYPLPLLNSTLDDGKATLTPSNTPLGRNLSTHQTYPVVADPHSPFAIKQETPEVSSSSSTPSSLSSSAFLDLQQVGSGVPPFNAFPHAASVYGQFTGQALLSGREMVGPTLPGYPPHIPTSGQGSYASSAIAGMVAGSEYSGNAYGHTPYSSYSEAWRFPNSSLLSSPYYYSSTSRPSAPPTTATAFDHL

[8] = cytotoxicity dependent on PAX8, dose response, cell-based, plate reader, dry powder (AID 743049); type: functional
[9] = PAX2 cell-based inhibition, dose response, selectivity assay for PAX8 inhibitor project, plate reader, dry powder samples (AID 743048); type: functional;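 further: HEK293 cells carrying a WT1 promoter luciferase reporter driven by expressed Pax2; potency is for inhibition of Pax2 driven reporter signal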
[10] = PAX5 activity inhibitors, dose response, selectivity assay for PAX8 inhibitor project, cell-based, plate reader, dry powder samples (AID 743047); type: functional;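 further: HEK293 cells carrying a Pax5 driven CD19 promoter luciferase reporter; potency of inhibitors that lower reporter luminescence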
[11] = P. falciparum Dd2 growth inhibitors, dose response, SYBR Green, cherry-picked samples (AID 1159567); type: functional, cell-based
[12] = P. falciparum Dd2 growth inhibitors, dose response, SYBR Green, dry powder samples (AID 1159566); type: functional, cell-based;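 further: potency for growth inhibition with lower SYBR green DNA signal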
[13] = P. falciparum ATP4 D1247Y mutant growth inhibitors, dose response, NITD609-resistant line, SYBR Green, dry powder (AID 1159571); type: functional, cell-based;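 further: parasites synchronized at ring stage by sorbitol before testing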
[14] = CTGF mRNA reduction under YAP1 overexpression, dose response, mechanism study for YAP1 pathway inhibitor project, DLD1 cells, RT-qPCR, cherry-pick (AID 1053127); type: functional, cell-based; conditions: DLD-1
[15] = P. falciparum 3D7-ScDHODH growth inhibitors, dose response, SYBR Green, dry powder samples (AID 1159570); type: functional, cell-based;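 further: parasite growth measured after 72 hours of compound exposure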
[16] = HepG2 cell cytotoxicity, dose response, cytotoxicity control, plate reader, dry powder samples (AID 1159569); type: functional, cell-based;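 further: inhibitor potency with signal falling toward the positive control level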
[17] = HEK293T cytotoxicity, dose response, cytotoxicity control for miR-122 modulator project, cell-based, activator set, cherry-pick (AID 720690); type: functional;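 further: HEK293T human cells scored for general mammalian cytotoxicity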
[18] = HepG2 cell cytotoxicity, dose response, cytotoxicity control, cherry-picked samples (AID 1159577); type: functional, cell-based
[19] = HepG2 cell cytotoxicity, dose response, cytotoxicity control, ATP luminescence, cherry-pick, set 6 (AID 1053125); type: functional, cell-based
CAAX prenyl protease 2 = biological target: T3, CAAX prenyl protease 2 (Saccharomyces cerevisiae S288c, UniProt Q03530); type: biochemical
T3 sequence (Q03530 whole entry): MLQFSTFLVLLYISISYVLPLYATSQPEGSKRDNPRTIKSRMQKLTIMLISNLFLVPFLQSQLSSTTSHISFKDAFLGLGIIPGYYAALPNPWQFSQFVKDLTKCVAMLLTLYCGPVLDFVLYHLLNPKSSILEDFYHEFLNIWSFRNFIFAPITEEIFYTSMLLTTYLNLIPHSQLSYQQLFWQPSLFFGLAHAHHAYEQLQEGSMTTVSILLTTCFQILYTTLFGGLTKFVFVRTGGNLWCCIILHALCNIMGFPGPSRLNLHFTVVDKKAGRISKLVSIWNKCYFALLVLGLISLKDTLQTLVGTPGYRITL

[20] = M. tuberculosis growth inhibition, HTS (AID 449762); type: functional
[21] = microbe, parasite or virus in culture; type: functional; conditions: Mycobacterium tuberculosis
Estrogen receptor beta [22] = biological target: T4, Estrogen receptor beta (Homo sapiens, UniProt Q92731); test: ERβ–SRC-3 coactivator interaction inhibitors, confirmation, orthogonal assay, biochemical, ELISA, streptavidin-HRP readout (AID 1060)
T4 sequence (Q92731 whole entry): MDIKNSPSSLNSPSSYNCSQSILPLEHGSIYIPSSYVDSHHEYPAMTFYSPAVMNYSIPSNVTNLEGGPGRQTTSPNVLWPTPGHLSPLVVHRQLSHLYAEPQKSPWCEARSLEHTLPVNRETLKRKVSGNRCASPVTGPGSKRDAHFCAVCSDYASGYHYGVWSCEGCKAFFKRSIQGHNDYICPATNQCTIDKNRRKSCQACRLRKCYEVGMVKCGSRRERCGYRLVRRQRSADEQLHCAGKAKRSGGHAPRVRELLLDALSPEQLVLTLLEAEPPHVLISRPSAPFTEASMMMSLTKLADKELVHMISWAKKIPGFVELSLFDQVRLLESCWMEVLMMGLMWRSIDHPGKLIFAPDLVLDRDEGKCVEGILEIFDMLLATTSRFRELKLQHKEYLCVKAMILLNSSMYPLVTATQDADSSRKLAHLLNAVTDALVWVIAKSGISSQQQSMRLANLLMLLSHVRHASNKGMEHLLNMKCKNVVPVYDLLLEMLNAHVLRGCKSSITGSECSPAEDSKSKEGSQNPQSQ

Estrogen receptor beta [23] = biological target: T4, Estrogen receptor beta
Estrogen receptor = Estrogen receptor (Homo sapiens, UniProt P03372);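 further: potency for inhibiting coactivator peptide recruitment to the receptor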
Estrogen receptor, sequence (P03372 whole entry): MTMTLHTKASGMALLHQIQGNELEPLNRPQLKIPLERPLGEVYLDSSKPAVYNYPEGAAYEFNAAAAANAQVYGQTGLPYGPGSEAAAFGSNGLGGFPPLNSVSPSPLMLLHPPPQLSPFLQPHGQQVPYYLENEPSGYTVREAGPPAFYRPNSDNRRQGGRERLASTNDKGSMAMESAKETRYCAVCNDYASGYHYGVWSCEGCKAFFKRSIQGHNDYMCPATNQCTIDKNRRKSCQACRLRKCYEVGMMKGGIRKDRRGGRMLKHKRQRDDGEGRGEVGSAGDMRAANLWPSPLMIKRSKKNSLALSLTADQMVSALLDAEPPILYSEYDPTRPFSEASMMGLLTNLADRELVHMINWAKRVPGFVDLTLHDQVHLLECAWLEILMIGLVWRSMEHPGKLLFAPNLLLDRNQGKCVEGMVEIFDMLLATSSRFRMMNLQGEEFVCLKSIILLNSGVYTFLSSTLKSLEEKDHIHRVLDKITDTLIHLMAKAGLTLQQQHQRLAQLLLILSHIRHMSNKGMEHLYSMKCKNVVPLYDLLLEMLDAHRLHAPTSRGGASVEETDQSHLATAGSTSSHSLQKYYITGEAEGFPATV

CC1=CN2C(=N)/C(=C/c3ccco3)C(=O)N=C2S1
EC50 [1]: 6.38 µM (active)
EC50 [2]: > 67.5 µM (inactive)
EC50 (H4): 1.63 µM (active)
EC50 [3]: 5.22 µM (active)

c1ccc(CNC2=Nc3ccccc3CS2)nc1
EC50 [2]: > 67.5 µM (inactive)

O=C(/C=C/Nc1ccc(F)c(Cl)c1)c1ccco1
EC50 (cells): > 67.5 µM (inactive)
EC50 [4]: > 67.5 µM (inactive)
IC50 (Protein skinhead-1): 25.2 µM (active)

COc1ccc(S(=O)(=O)Nc2ccc(Nc3ccccc3)cc2)cc1
IC50 [5]: > 69.5 µM (inactive)
IC50 [6]: 12 µM (inactive)

C[C@H](CO)N1C[C@H](C)[C@@H](CN(C)S(=O)(=O)c2ccc(Cl)cc2)OCCCC[C@H](C)Oc2ccc(NS(=O)(=O)c3ccccc3)cc2C1=O
AC50 [7]: 27.6 µM (active)
AC50 (Paired box protein Pax-8): 6.52 µM (active)
AC50 [8]: 14 µM (active)
AC50 [9]: 23.7 µM (active)
AC50 [10]: 26.3 µM (active)

C[C@@H]1CN([C@@H](C)CO)C(=O)c2ccccc2-c2ccccc2CO[C@H]1CN(C)C(=O)Nc1cccc(C(F)(F)F)c1
AC50 [11]: 1.55 µM (active)
AC50 [12]: 1.03 µM (active)
AC50 [13]: 2.38 µM (active)
AC50 [14]: 8.76 µM (active)
AC50 [15]: 0.779 µM (active)
AC50 [16]: > 100 µM (inactive)

CN(C)CC(=O)N1CCCCN2[C@@H](CO)[C@@H](c3ccc(/C=C/c4ccccc4)cc3)[C@@H]2C1
AC50 [11]: 1.14 µM (active)
AC50 [17]: 23.6 µM (active)
AC50 [18]: 8.82 µM (active)

CCOC(=O)c1cc2c(=O)n3cccc(C)c3nc2n(CC(C)C)/c1=N/C(=O)c1ccco1
AC50 [19]: > 52 µM (inactive)
AC50 (CAAX prenyl protease 2): 14 µM (active)

CCCCCCCC(=O)N/N=C(/C)c1c(O)cc(C)oc1=O
IC50 [20]: > 100 µM (active)
CC50 [21]: > 40 µM (active)

CC(=N)/C(C#N)=C(/O)CSc1nnc(-c2ccc(OC(F)F)cc2)o1
IC50 (Estrogen receptor beta [22]): 18.6 µM (not active)
IC50 (Estrogen receptor beta [23]): 9.26 µM (active)
IC50 (Estrogen receptor): 46.6 µM (not active)

Cc1ccc(/N=C/C2=C(O)C3(C)CCC2C3(C)C)cc1C (configuration not stated)
IC50 [20]: > 100 µM (active)
